{
  "source": "paper PMC9256669",
  "about": "“Monomethyl auristatin antibody and peptide drug conjugates for trimodal cancer chemo-radio-immunotherapy” (Nature Communications, 2022)",
  "key": {"B16 tumors [1]": {"tested_on": "B16 tumors", "design": "species or system C57BL/6 mice", "conditions": "mouse, in vivo", "experimental": "At harvest, tumors were isolated, minced, and re-suspended in FBS-free DMEM media supplemented with components of MACs tumor dissociation kit. Tissues were incubated for 15 min at 37 °C and mechanically digested using the gentle MACs Octo dissociator. Tissue suspensions were washed with fresh media and passed through a 100-µm strainer. Samples were split in half for immediate staining or stimulated with the Biolegend Cell Activation Cocktail (with Brefeldin A) for 3 h. Samples were washed with PBS and immediately processed for live/dead cell discrimination using BD LIVE/DEAD™ Fixable Blue Dead Cell Stain Kit. Cells were washed and stained for surface markers for 30 min at 4 °C. Intracellular staining was performed using the eBioscience FOXP3/Transcription Factor Buffer Set from Invitrogen and stained with intracellular antibodies. […] All antibodies were validated by the supplier. All flow cytometry data acquisition was done using BD LSRFortessa and analyzed using FlowJo software. […]\nRepresentative flow cytometry plots to gate immune cells quantitated in Fig. 4a, b, 4d &\nSupplementary Fig. 10b, c. b) Quantification of tumor immune cell identified by flow cytometry on […]\n(Clone:GB11). In addition, RNA levelsof tumor granzyme-B was analyzed by qPCR. […]"}, "MOC1 tumors": {"tested_on": "MOC1 tumors", "assay": "Subcutaneous tumor therapy, ADC monotherapy, mouse survival", "type": "in vivo, C57BL/6 mice", "quoted_text": "(§1) MOC1, B16, LL/2, and MC38 tumor cells were injected subcutaneously into the hindlimbs of 6-week-old female C57BL/6 albino mice in 100 µl of 1:1 Matrigel (BD) and PBS solution. Fractionated IR was delivered focally to the tumor-bearing hindlimbs (3 Gy to MC38 tumors and 5 Gy to LL/2 and B16 tumors) as indicated in figure legends using a PXI X-RAD 225 XL irradiator at maximal dose rate of 3 Gy/min with a beam-conditioning aluminum filter (Precision X-ray Irradiation). For RAG1 KO studies, 6-week-old female Rag1^tm1Mom mice were injected subcutaneously with tumor cells in their hindlimbs (Jackson Labs). For CD8 depletion studies, mice were i.p. injected with anti-CD8 (BioXCell #BE0117) at 10 mg/kg on days −6, −5 and −4 tumor cell implant and then weekly starting on day after tumor cells were injected or control antibody. […] Tumor volumes were measured and calculated using the formula as ½ * length * width^2. Mice were sacrificed when tumor volume reached >1500 mm^3, maximal tumor volume approved on our protocol for subcutaneous tumors."}, "[2]": {"assay": "Tumor drug measurement (MMAE by LC-MS/MS) after CDX3379-MMAE", "type": "in vivo, mouse", "design": "unit not given here", "conditions": "orthotopic CAL27 tongue xenografts (methods: CAL27 PIK3CA H1047R cells, NOD SCID), 2.5 nmoles CDX3379-MMAE i.v., tumors harvested 48 h, one value per tumor, vehicle 1.606, 2.873, a reviewer reads roughly 100 nM", "experimental": "For CDX3379-MMAE drug measurements, 6-week-old female NOD SCID (University of California San Diego Animal Care Program) were injected orthotopically into the tongue with 150,000 CAL27 PIK3CA H1047R expressing cells in 20 µl of DMEM. After 10 days, mice were intravenously (i.v.) injected through the tail vein with 2.5 nmole of CDX3379-MMAE in 50 µl of PBS. […] Tumors were excised on days indicated in figure legends, weighed, and homogenized in 10 v/w of 2% acetic acid in 1:1 acetonitrile:water with a point sonicator (Fisher Scientific) using an amplitude range of 5–15% for 20 s on ice. Homogenates were centrifuged ([…], 10 min), supernatants collected for drug concentration measurements using LC–MS/MS. Drug concentration was determined by LC–MS/MS with Luna-2 C18 column and Agilent Trap XCT mass spectrometer. For MMAE tissue concentrations, integrated ion currents for m/z 682.4, 496.4 and m/z 686.4, 506.4 extracted from fragmented m/z 740.4 and 718.4, respectively, were combined. The total ion current was fit to a standard curve generated for each drug to quantitate tissue drug concentration."}, "MOC2 tumors": {"tested_on": "MOC2 tumors", "assay": "Orthotopic syngeneic tongue tumor therapy, tumor volumes", "type": "in vivo, C57BL/6 mice", "conditions": "single 2.5 nmole i.v. injection", "description": "Orthotopic tongue xenograft tumors were established in 6-week-old NOD SCID mice by injecting 150,000 CAL27 parental (WT) or PIK3CA H1047R-expressing cells. […] On the last day of tumor xenograft measurements, mice were euthanized, tongues resected, imaged, and fixed. […] IR was delivered as 2 parallel opposed fields.\n6-week-old C57BL/6 female mice were implanted with 50,000 MOC2 cells into the tongue. […] Five days after treatment, tumors were isolated, minced, and re-suspended in FBS-free DMEM media supplemented with components of MACs tumor dissociation kit. Tissues were incubated for 15 min at 37 °C and mechanically digested using the gentle MACs Octo Dissociator. Digested samples were then passed through a 100-µm strainer to acquire a single-cell. For viability staining, cells were washed in PBS and stained with Cell-ID Cisplatin (DVS Sciences) to a final concentration of 5 μM for 5 min at room temperature. Cisplatin was quenched when cells were washed and stained with the antibody cocktail. Antibodies were prepared in Maxpar cell staining buffer (PBS with 2 mM EDTA, 0.1% BSA, 0.05% NaN3) and incubated with cells for 15 min at room temperature. […] Antibodies (clone in parenthesis) used for CyTOF included B220 (RA3-6B2), CD117(2B8), CD11c (N418), CD25 (3C7), CD4 (RM4-5), CD45 (30-F11), CD8a (53-6.7), MHC-II (M5/114.15.2), NKP46 (29A1.4), TCRb (H57-597) from Fluidigm. […]"}, "B16 tumors [3]": {"tested_on": "B16 tumors", "assay": "Subcutaneous tumor therapy, ADC monotherapy, mouse survival", "type": "in vivo, C57BL/6 mice", "quoted_text": "as §1"}, "LL/2 cells": {"tested_on": "LL/2 cells", "assay": "Cell cycle analysis", "type": "cell-based, murine", "experimental": "Cells were MMAE treated for 24 h, fixed in 70% ethanol, stained with FxCyclePI/RNase solution (Life Technologies), and then analyzed by FACS using FlowJo software. […]\n0.9 b) Cell cycle analysis […]\nSource data are provided in Source Data file."}},
  "note": "“And” between values parts separate entries of the source, which are not always exact repeats. Equal values may be shown once. Non-standard residues stand in square brackets, D forms with d. Residues, ends and D or L forms follow the SMILES beside them. *: point of attachment. Dolaproine = CO[C@@H]([C@@H]1CCCN1)[C@@H](C)C(=O)O; Dil = CC[C@H](C)[C@H](NC)[C@@H](CC(=O)O)OC; X1 = C[C@@H](N*)[C@@H](O)c1ccccc1; NMeV = CN[C@H](C(=O)O)C(C)C",
  "data": [
    {"compound": "cyclo(RGD)fc-MC-HN-peg8-e9-oPLGC(Me)AG-r9-c-(MC-VC-PABC-MMAE)-CONH2 [ACPP-MMAE]", "values": [
      {"measurement": "CD8 T cell granzyme B", "setting": "B16 tumors [1]", "value": "increased CD8 T cell granzyme B at both the transcriptional and protein levels"},
      {"measurement": "Immune checkpoint markers: GZMB, RNA", "setting": "B16 tumors [1]", "value": "3.95 and 3.63"}
    ]},
    {"compound": "CDX3379-MMAE: anti-HER3 antibody CDX3379 with 4 MMAE per antibody via MC-VC-PABC linker, labeled with Cy5", "values": [
      {"measurement": "anti-tumor activity as measured by mouse survival", "setting": "MOC1 tumors", "value": "modest anti-tumor activity"},
      {"measurement": "Tumor MMAE concentration", "setting": "[2]", "value": "124.8 and 143.8 and 123.3 and 91.37"},
      {"measurement": "tumor growth", "setting": "MOC2 tumors", "value": "modest tumor growth delay"},
      {"measurement": "anti-tumor activity as measured by mouse survival", "setting": "B16 tumors [3]", "value": "modest anti-tumor activity"}
    ]},
    {"compound": "CC[C@H](C)[C@@H]([C@@H](CC(=O)N1CCC[C@H]1[C@H](OC)[C@@H](C)C(=O)N[C@H](C)[C@@H](O)c1ccccc1)OC)N(C)C(=O)[C@@H](NC(=O)[C@@H](NC)C(C)C)C(C)C", "note": "[MMAE, monomethyl auristatin E] (H-[NMeV]V[Dil][Dolaproine]-X1)", "values": [
      {"measurement": "G2/M fraction", "setting": "LL/2 cells; MMAE 1 nM, replicate 1", "value": 0.15},
      {"measurement": "G2/M fraction", "setting": "LL/2 cells; MMAE 1 nM, replicate 2", "value": 0.12},
      {"measurement": "G2/M fraction", "setting": "LL/2 cells; MMAE 2 nM, replicate 1", "value": 0.13},
      {"measurement": "G2/M fraction", "setting": "LL/2 cells; MMAE 2 nM, replicate 2", "value": 0.14},
      {"measurement": "G2/M fraction", "setting": "LL/2 cells; MMAE 5 nM, replicate 1", "value": 0.21},
      {"measurement": "G2/M fraction", "setting": "LL/2 cells; MMAE 5 nM, replicate 2", "value": 0.23},
      {"measurement": "G2/M fraction", "setting": "LL/2 cells; MMAE 10 nM, replicate 1", "value": 0.63},
      {"measurement": "G2/M fraction", "setting": "LL/2 cells; MMAE 10 nM, replicate 2", "value": 0.53}
    ]}
  ]
}
